{"source": "paper PMC7667029", "about": "“A Targeted Computational Screen of the SWEETLEAD Database Reveals FDA-Approved Compounds with Anti-Dengue Viral Activity” (mBio, 2020)", "key": {"DENV2": {"test_system": "DENV2", "assay": "Antiviral activity in DENV2-infected Huh7 cells, infectious virus in supernatant by plaque assay", "format": "cell-based, dengue virus", "details": "Dengue virus, Huh-7, DENV2-infected Huh7 cells"}, "dengue virus": {"test_system": "dengue virus", "assay": "Initial screening of hit compounds for anti-dengue activity in tissue culture cells (Table S1)", "format": "cell-based", "details": "viral titer relative to vehicle, tissue culture cell lines (BHK-21 48 hpi, Fig. S1; Huh7, Fig. 2C, 3C, 4C)"}}, "data": [{"compound": "COc1cc2c(Nc3ccc(Br)cc3F)ncnc2cc1OCC1CCN(C)CC1", "note": "[Vandetanib, vandetanib]", "values": [{"measurement": "IC90", "setting": "DENV2; from dose-response curve fit, 24 hpi", "result": 3600, "unit": "nM"}, {"measurement": "IC50", "setting": "DENV2; single infectious cycle, plaque assay at 24 hpi, read-out: IC50 of viral inhibition (infectious extracellular virus)", "result": 1600, "unit": "nM"}, {"measurement": "Antiviral", "setting": "dengue virus", "result": "++ (moderately antiviral, with titer between 5 and 20% of vehicle)"}]}]}
